≈ marks a conversion by molar mass, not a printed value.
Legend:
P-815 = test: In vitro activity in mouse leukemic cell line P-815; format: cell-based; details: P815, P-815, in vitro, read-out: ID50 (the source's name)
From the text: (§1) CNUCLEOSIDES IN MOUSE AND HUMAN LEUKYMIC CELL LINES
(§2) It is noted that the first compound in Table 1 is the compound reported in Lim et al (supra).

L-1210 = test: In vitro activity in mouse leukemic cell line L-1210; format: cell-based; details: L1210, L-1210, in vitro, read-out: ID50 (the source's name)
From the text: as §1, §2

RAJI = test: In vitro activity in human leukemic cell line RAJI; format: cell-based; details: read-out: ID50 (the source's name)
From the text: as §1, §2

ALL-CCRF-CEM = test: In vitro activity in human leukemic cell line ALL-CCRF-CEM; format: cell-based; details: read-out: ID50 (the source's name)
From the text: as §1, §2

HL-60 = test: In vitro activity in human leukemic cell line HL-60; format: cell-based; details: HL-60, in vitro, read-out: ID50 (the source's name)
From the text: as §1, §2

leukemic cells = test: Anti-leukemic / antitumor activity using usual techniques of the art (summary statements); format: cell-based, mouse and human; details: in words
From the text: as §2

P-815/0 = test: In vivo activity of C-nucleosides in mice, P-815/0 line
From the text: (§3) IN VIVO ACTIVITY OF CNUCLEOSIDES IN MICE
as §2

L-1210/0 = test: In vivo activity of C-nucleosides in mice, L-1210/0 line
From the text: as §3, §2

L-1210/MP = test: In vivo activity of C-nucleosides in mice, L-1210/MP line; details: Q4D × 3,D1 @ 0.4 MG/KG
From the text: as §3, §2

P-815/ARA C = test: In vivo activity of C-nucleosides in mice, P-815/ARA C line
From the text: as §3, §2

| SMILES | IC50 (P-815) [mg/L] | IC50 (L-1210) [mg/L] | IC50 (RAJI) [mg/L] | IC50 (ALL-CCRF-CEM) [mg/L] | IC50 (HL-60) [mg/L] | antitumor / anti-leukemic activity (leukemic cells; listed as X--NH, R1 =OH) | antitumor / anti-leukemic activity (leukemic cells; listed as first compound in Table 1) | % ILS (P-815/0; Q4D × 4,D1 @ 40 MG/KG) [%] | % ILS (P-815/0; QD × 2/Q2D × 3 @ 60 MG/KG) [%] | % ILS (L-1210/0; Q4D × 3,D1 @ 0.25 MG/KG) [%] | % ILS (L-1210/0; QD × 5,D1 @ 0.5 MG/KG) [%] | % ILS (L-1210/MP) [%] | % ILS (P-815/ARA C; Q4D × 3,D1 @ 0.4 MG/KG) [%] | % ILS (P-815/ARA C; Q4D × 3,D1 @ 0.7 MG/KG) [%] |
| --- | --- | --- | --- | --- | --- | --- | --- | --- | --- | --- | --- | --- | --- | --- |
| O=c1[nH]cnc2c([C@@H]3O[C@H](CO)[C@@H](O)[C@H]3O)csc12 [X = S, R1 = OH, R2 = H, 7-(β-D-Ribofuranosyl)-3H-4-oxo-thieno[3,2-d]pyrimidine] | 2.5 (≈ 8.79 µM) | 3.3 (≈ 11.6 µM) | 4.2 (≈ 14.8 µM) | 0.9 (≈ 3.17 µM) | 0.4 (≈ 1.41 µM) |  |  |  |  |  |  |  |  |  |
| Nc1ncnc2c([C@@H]3O[C@H](CO)[C@@H](O)[C@H]3O)csc12 [X = S, R1 = NH2, R2 = H, 7-(β-D-ribofuranosyl)-4-amino-thieno[3,2-d]pyrimidine] | 0.0003 (≈ 0.00106 µM) | 0.0006 (≈ 0.00212 µM) | 0.002 (≈ 0.00706 µM) | 0.0005 (≈ 0.00176 µM) | 0.0005 (≈ 0.00176 µM) |  |  |  |  |  |  |  |  |  |
| CSc1ncnc2c([C@@H]3O[C@H](CO)[C@@H](O)[C@H]3O)c[nH]c12 [X = NH, R1 = SMe, R2 = H] | 0.3 (≈ 1.01 µM) |  |  |  |  |  |  |  |  |  |  |  |  |  |
| O=c1[nH]cnc2c([C@@H]3O[C@H](CO)[C@@H](O)[C@H]3O)c[nH]c12 [X = NH, R1 -- OH, R2 = H, reference compound] | > 10 | > 100 | > 100 | > 100 | > 100 | essentially no antitumor activity | lack of activity |  |  |  |  |  |  |  |
| CSc1ncnc2c([C@@H]3O[C@H](CO)[C@@H](O)[C@H]3O)csc12 [X = S, R1 = SMe, R2 = H, 7-(β-D-Ribofuranosyl)-4-methylthio-thieno[3,2-d]pyrimidine] | 0.03 (≈ 0.0954 µM) | 0.07 (≈ 0.223 µM) | 0.03 (≈ 0.0954 µM) | 0.006 (≈ 0.0191 µM) | 0.008 (≈ 0.0254 µM) |  |  | 56.3 | 71.4 |  |  |  |  |  |
| OC[C@H]1O[C@@H](c2csc3c(=S)[nH]cnc23)[C@H](O)[C@@H]1O [X = S, R1 = SH, R2 = H, 7-(β-D-ribofuranosyl)-3H-4-thiono-thieno[3,2-d]pyrimidine] | 0.5 (≈ 1.66 µM) | 0.6 (≈ 2 µM) | 0.9 (≈ 3 µM) | 1.6 (≈ 5.33 µM) | 0.4 (≈ 1.33 µM) |  |  |  |  |  |  |  |  |  |
| Nc1nc[nH]c2c([C@@H]3O[C@H](CO)[C@@H](O)[C@H]3O)cnc1-2 [X = NH, R1 = NH2, R2 = H, 7-(β-D-Ribofuranosyl)-4-amino-pyrrolo[3,2-d]pyrimidine] | 0.001 (≈ 0.00376 µM) | 0.0008 (≈ 0.003 µM) | 0.002 (≈ 0.00751 µM) | 0.0008 (≈ 0.003 µM) | 0.0003 (≈ 0.00113 µM) |  |  |  |  | 17.0 | 9.1 | 71.8 | 19.8 | 30.8 |
| OC[C@H]1O[C@@H](c2c[nH]c3c(=S)[nH]cnc23)[C@H](O)[C@@H]1O [X = NH, R1 = SH, R2 = H] | 5.6 (≈ 19.8 µM) |  |  |  |  |  |  |  |  |  |  |  |  |  |

From patent US4584369A, “Anti-leukemic beta-glycosyl C-nucleosides” (Sloan-Kettering Institute for Cancer Research, priority 1984, dated 1986)
